Assays:
Mesenchymal stem cells [1] = experiment: Cell viability measured by MTT; assay type: cell-based, human
Experimental: The cell viability was measured by MTT (3-(4,5-dimethylthiazol-2-yl)-2,5-diphenyltetrazolium bromide). Specifically, MTT solution (0.0333 g/ml DMEM) was added to the neural cells cultured in Example 3 for reaction at 37° C. for 90 minutes and then removed. Then, dimethyl sulfoxide (DMSO) was added and left to stand for 10 minutes, and the resulting solution was used to measure the absorbance at 570 nm using a spectrum analyzer. Mesenchymal stem cells were seeded in low glucose-Dulbecco's Modified Eagle's Medium (LG-DMEM) containing 10% fetal bovine serum (FBS) at a density of 5×10^3 cell/cm2. 24 hours after seeding, the medium was replaced with fresh DMEM/F-12 (1:1 mixed medium) supplemented with 1 ug hydrocortisone, […], 1% bovine serum albumin, and 0, 1, 2, 3, 4, 5 or 8 mM lipoic acid to induce differentiation into neural cells. Moreover, 1 ug forskolin or […] (NGF) might be further added to enhance differentiation into neural cells. […]

Mesenchymal stem cells [2] = experiment: Differentiation into neural cells, cellular morphology under a microscope; assay type: cell-based, human; settings: for maintenance of the morphology of neural cells: after induction of differentiation
Experimental: Mesenchymal stem cells obtained from adipose tissue used in this Example were StemPro® Adipose-derived Stem Cells (Product No. R7788-110) purchased from Invitrogen. Frozen ampoules were thawed, and cells were washed with DMEM, centrifuged at 800 RPM for 5 minutes, and cultured in DMEM containing low glucose (1000 mg/L) and supplemented with 10% fetal bovine serum (FBS).
(§1) Mesenchymal stem cells were seeded in low glucose-Dulbecco's Modified Eagle's Medium (LG-DMEM) containing 10% fetal bovine serum (FBS) at a density of 5×10^3 cell/cm2. 24 hours after seeding, the medium was replaced with fresh DMEM/F-12 (1:1 mixed medium) supplemented with 1 uM hydrocortisone, […], 1% bovine serum albumin, and 0, 1, 2, 3, 4, 5 or 8 mM lipoic acid to induce differentiation into neural cells. Moreover, 1 uM forskolin was further added to promote differentiation into neural cells.

Mesenchymal stem cells [3] = experiment: RT-PCR of neuron-related genes (MAP2, DCX, Tau, NeuroD1, NSE, Nestin, NF-L); assay type: cell-based, human; settings: 5 days after differentiation, compared to the control
Experimental: as §1
The total RNA was recovered and isolated using TRIzol® solution (Invitrogen, USA), and then 1 ug RNA was used to synthesize cDNA using an RT-PCR kit (Clontech, USA). The genes to be analyzed were MAP2, DCX, Tau, NeuroD1, NSE, Nestin and NF-L, and the primers used for the analysis are shown in the following Table 1.

human cells = settings: serum-free culture of human cells; cited from earlier work
Mesenchymal stem cells [4] = experiment: Western blot analysis of neuron-associated proteins (NSE, Nestin, NF-L); assay type: cell-based, human; settings: 5 days after differentiation, compared to the control
Experimental: as §1
The neural cells cultured in Example 3 were washed with phosphate-buffered saline (PBS) and lysed with radioimmunoprecipitation (RIPA) buffer containing protease inhibitor. The total protein was measured using a BCA® Protein Assay kit (Pierce, USA), and 10 ug protein was electrophoresed on a 10% polyacrylamide gel and transferred to a nitrocellulose membrane. Then, the membrane was blocked with Tris-buffered saline (TBS) containing 5% skim milk and 0.5% Tween® 20 at room temperature for 30 minutes and reacted with antibodies such as anti-NSE, anti-Nestin, Anti-NF-L (Cell Signaling, USA), and β-actin (Sigma, USA) at 4° C. for 16 hours. Subsequently, the membrane was reacted with an anti-mouse or anti-rabbit secondary antibody at room temperature for 1 hour, exposed to ECL™ (Pierce™ Biotechnology, USA), and then imaged using a ChemiDoc™ XRS+Imaging System (BioRad®, USA).

Mesenchymal stem cells [5] = experiment: Immunofluorescence staining of neuron-associated proteins; assay type: cell-based, human; settings: all cases treated with lipoic acid, 5 days after differentiation, compared to the control
Experimental: as §1
The neural cells cultured in Example 3 were fixed on glass coverslips with 4% paraformaldehyde for 10 minutes, blocked with PBS containing 1.5% bovine serum albumin (BSA), and then permeabilized with PBS containing 0.5% Triton™ X-100. Then, the cells were reacted with primary antibodies such as anti-NF-L, anti-MAP2, anti-GFAP, anti-NeuroD1 (Cell Signaling, USA), and anti-tau (Biosource, USA) at 4° C. for 16 hours. Then, the cells were washed with PBS for 10 minutes and reacted with species-specific secondary antibodies such as anti-rabbit IgG-Alexa Fluor® 488 or anti-mouse IgG-Alexa Fluor® 555 conjugate at room temperature for 1 hour. Then, the stained cells were mounted with Vectashield® mounting medium containing DAPI and contrast stained. The cells were examined using a Confocal Laser Scanning Microscope (LSM 510-meta, Germany), and the results are shown in FIG. 9.

COc1ccc(O)c(C(C)(C)C)c1 [butylated hydroxyanisole]
cell viability (Mesenchymal stem cells [1]; 5 days, 200 ug butylated hydroxyanisole (control)): too low | maintenance of the morphology of neural cells (Mesenchymal stem cells [2]): destroyed after 24 hours

O=C(O)CCCC[C@@H]1CCSS1 (racemic) [lipoic acid]
expression of neuron-related genes (mRNAs) (Mesenchymal stem cells [3]; 4 mM lipoic acid): further increased | expression of neuron-related genes (mRNAs) (Mesenchymal stem cells [3]; 8 mM lipoic acid): increased | concentration known to cause cell apoptosis (human cells): ≥ 2000 µM | cell viability (Mesenchymal stem cells [1]; human, 4 mM): 61.4% | cell viability (Mesenchymal stem cells [1]; human, 8 mM): 51.4% | expression of neuron-associated proteins (Western blot) (Mesenchymal stem cells [4]; 4 mM lipoic acid): further increased | expression of neuron-associated proteins (Western blot) (Mesenchymal stem cells [4]; 8 mM lipoic acid): increased | maintenance of the morphology of neural cells (Mesenchymal stem cells [2]): well maintained up to 5 days | morphological changes of neural cells (Mesenchymal stem cells [2]; lipoic acid at 1 mM, 5 days, with hydrocortisone, insulin, 1% bovine serum albumin): no change | morphological changes of neural cells (dendrite formation) (Mesenchymal stem cells [2]; lipoic acid at more than 2 mM, 5 days, with 1 uM hydrocortisone, […], 1% bovine serum albumin): dendrites were well formed | expression of neuron-associated proteins (immunofluorescence) (Mesenchymal stem cells [5]): increased

From US9499787B2, “Method for differentiating stem cells into neurons” (Dongguk University Industry-Academic Cooperation Foundation, priority 2012, dated 2016)
